Laboratory results: paper PMC10819430, “Binding Affinity and Mechanism of Six PFAS with Human Serum Albumin: Insights from Multi-Spectroscopy, DFT and Molecular Dynamics Approaches” (Toxics, 2024)
Entries after “also recorded” stand apart in the source; their conditions may differ. Like-named read-outs stand apart in the source and are kept apart here.

Legend:
[1] = biological target: T1, Human Serum Albumin (HSA) (Homo sapiens, UniProt P02768); assay: Fluorescence quenching of HSA by PFAS (Stern–Volmer, double logarithmic and Van't Hoff analysis); type: binding; conditions: for quenching of HSA fluorescence intensity: PFAS 1.8 × 10^−5 mol·L^−1, HSA 1 × 10^−6 mol·L^−1, 298 K; for ΔH / ΔS: Van't Hoff, 298–310 K; for HSA fluorescence peak position after PFAS addition (blue shift from 337 nm): as the concentration of PFAS increases; for affinity for HSA: fluorescence quenching experiments; for main interaction force from thermodynamic analysis: signs of ΔH and ΔS
T1 construct: HSA (≥96%) and six PFAS were all purchased from Aladdin Chemicals (Shanghai, China); purchased Aladdin Chemicals (Shanghai, China)
Procedure: Fluorescence quenching experiments greatly benefit studies on the interactions between ligands and proteins. Initially, 3 mL of HSA stock solution was put into a 10 mm square quartz cuvette. Following that, PFAS stock solution was gradually added to achieve various final concentrations, namely 0, 3, 6, 9, 12, 15, 18 × 10^−6 mol·L^−1. By incrementally increasing the molar ratio of PFAS vs. HSA up to 18, their binding characteristics can be better investigated.
A thermostat (TR-01A, Bishui Corp, Beijing, China) was used to precisely control the solution temperature, which was set at 298, 304, and 310 K. This device includes a temperature controller and a metal heating cuvette module in conjunction with a fluorometer. This thermostat has a temperature range of 20–60 °C (293–333 K) and an accuracy of 0.1 °C Celsius. This step is critical for keeping the experimental conditions stable. Following that, the samples were fluorescence-scanned with a fluorometer (Cary Eclipse, Agilent, CA, USA). The excitation wavelength was set at 275 nm to efficiently stimulate tryptophan (Trp) and tyrosine (Tyr) residues. Additional test parameters include an emission of 275–500 nm, scanning rate of 1200 nm/min and PTV voltage of 700 v. Fluorescence quenching experiments were repeated three times, and the average values were taken for further calculation.
Fluorescence internal filtration (IFE) refers to the phenomenon where the fluorescence intensity decreases during fluorescence measurement due to the absorption of excitation or emission light by sample components (small molecules or proteins) in solution [19, 20]. This phenomenon is more obvious in the samples with a high concentration of adsorbent. A fluorescence correction formula was used in this study to correct the IFE effect on the data, as follows: Fcorr=Fobs×10^Aex+Aem/2 where Fcorr and Fobs are corrected and observed fluorescence emission intensities, respectively, Aex and Aem are UV-vis absorbances at the excitation and emission wavelengths.
The quenching constant can be calculated using the Stern–Volmer Equation (3). The results are shown in Table 2 and Figure 1: F0/F=1+Kqτ0=1+KsvQ where F0 and F refer to HSA fluorescence intensities without and with the quencher (PFAS solution); Kq is the biomacromolecule’s quenching rate constant; τ0 is the average fluorescence lifetime of the fluorescent molecule when the quencher PFAS is absent, usually taken as 10^−8 s; [Q] is the PFAS concentration; Ksv is the Stern–Volmer quenching constant; F0/F is the vertical axis; the Stern–Volmer curves of this system are 298, 304, and 310 K.
The double logarithmic formula can be used to calculate the binding constants and binding site numbers of HSA–PFAS complexes: logF0−F/F=logKb+nlogQ where F0 and F are parameters representing the initial fluorescence intensity and the fluorescence intensity after adding PFAS, respectively. The binding characteristics are represented by the binding constant, Kb, and the number of binding sites, n. The slope of the straight line is the number of binding sites, n, and the binding constant Kb is obtained from the exponent of the straight line’s intercept using the double logarithmic graph. Figure A2 and Table 2 show the calculation results.
The enthalpy change (∆H), entropy change (∆S), and free energy change (∆G) calculated from the Van’t Hoff equation [50] can be used to determine the type of interaction. lnKb=−ΔH/RT+ΔS/R ΔG=ΔH−TΔS=−RTlnKb where R represents the ideal gas constant (8.314 J·mol^−1·K^−1).

HSA [2] = biological target: T2, HSA (Homo sapiens, UniProt P02768); assay: 3D-EEM fluorescence spectra of HSA–PFAS; conditions: for 3D-EEM Peak A Position λex/λem / 3D-EEM Peak B Position λex/λem / 3D-EEM Peak A Intensity F / 3D-EEM Peak B Intensity F: HSA 1 × 10^−6, PFAS 1.8 × 10^−5 mol·L^−1; for 3D-EEM Peak A Intensity F: HSA alone 673.66; for 3D-EEM Peak B Intensity F: HSA alone 996.906
T2 construct: HSA (≥96%) and six PFAS were all purchased from Aladdin Chemicals (Shanghai, China); purchased Aladdin Chemicals (Shanghai, China)
Procedure: The 3D-EEM spectra were recorded using specific scanning parameters at the scanning rate of 2400 nm·min^−1, an […] with 5 nm increments, and an emission of 280–550 nm with 2 nm increments. The concentrations of PFAS and HSA were set at 18 × 10^−6 mol·L^−1 and 1 × 10^−6 mol·L^−1, respectively.

HSA [3] = biological target: T2, HSA; assay: Circular dichroism (CD) spectrum, secondary structure of HSA; conditions: HSA:PFAS 1:18, 298 K; for HSA secondary structure: β-Sheet: HSA alone 4.9; for HSA secondary structure: β-Turn: HSA alone 16.9; for HSA secondary structure: Random Coil: HSA alone 36.7; for HSA secondary structure: α-Helix: HSA alone 41.6
Text: CD measurements (190–260 nm) were taken before and after the addition of PFAS to HSA using a J-815 CD spectrometer equipped with a PMT detector (JASCO, Tokyo, Japan). The protein concentration was set at 1 × 10^−6 mol/L, with a fixed HSA-to-PFAS concentration ratio of 1:18. The scanning rate was set to 100 nm/min with 0.5 nm increments, and the photometric mode of HT. Each sample was scanned three times. The blank buffer control was automatically subtracted during the scanning process. All tests were carried out at 298 K. The CONTIN analysis method from the DichroWeb was employed to determine the contents of the protein’s secondary structure.

HSA [4] = biological target: T2, HSA; assay: Competitive probe experiment (warfarin, ibuprofen, lidocaine); type: binding
Text: Competitive probe experiments are commonly used to identify specific binding sites in the structure of proteins. Three probe molecules known to bind to distinct binding sites on HSA were selected: warfarin (subdomain IIA), ibuprofen (subdomain IIIA), and lidocaine (subdomain IIB). These probe molecules would compete with PFAS for the same protein sites when binding with HSA. The potential binding sites can be inferred by monitoring and comparing changes in fluorescence intensity when probe molecules are present.

[5] = human body, cited from earlier work

T1 sequence (P02768 25-609): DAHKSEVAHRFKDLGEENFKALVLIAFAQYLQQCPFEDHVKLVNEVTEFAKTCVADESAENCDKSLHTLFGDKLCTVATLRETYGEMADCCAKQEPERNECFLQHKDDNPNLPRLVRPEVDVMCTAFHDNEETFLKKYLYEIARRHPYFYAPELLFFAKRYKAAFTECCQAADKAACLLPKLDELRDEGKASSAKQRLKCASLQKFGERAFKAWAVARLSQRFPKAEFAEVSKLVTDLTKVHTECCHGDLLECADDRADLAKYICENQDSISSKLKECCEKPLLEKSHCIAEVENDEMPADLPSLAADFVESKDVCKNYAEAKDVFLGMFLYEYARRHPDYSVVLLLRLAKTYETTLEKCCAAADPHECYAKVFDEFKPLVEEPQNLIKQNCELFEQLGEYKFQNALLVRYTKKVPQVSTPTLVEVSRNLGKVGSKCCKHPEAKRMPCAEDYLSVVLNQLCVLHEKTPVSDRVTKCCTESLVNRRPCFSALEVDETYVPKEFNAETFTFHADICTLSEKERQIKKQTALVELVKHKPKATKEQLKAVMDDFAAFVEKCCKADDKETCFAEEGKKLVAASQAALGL
T2 sequence (P02768 25-609): as above

Row | SMILES | fluorescence quenching mechanism [1] | quenching of HSA fluorescence intensity [1] [%] | KSV (Stern–Volmer quenching constant) ([1]; T = 298 K) | n (number of binding sites) ([1]; T = 298 K) | ΔG ([1]; T = 298 K) [kJ/mol] | Kq (quenching rate constant) ([1]; T = 298 K, τ0 taken as 10^−8 s) | KSV (Stern–Volmer quenching constant) ([1]; T = 304 K) | n (number of binding sites) ([1]; T = 304 K) | ΔG ([1]; T = 304 K) [kJ/mol] | Kq (quenching rate constant) ([1]; T = 304 K, τ0 taken as 10^−8 s) | KSV (Stern–Volmer quenching constant) ([1]; T = 310 K) | n (number of binding sites) ([1]; T = 310 K) | ΔG ([1]; T = 310 K) [kJ/mol] | Kq (quenching rate constant) ([1]; T = 310 K, τ0 taken as 10^−8 s) | ΔH [1] [kJ/mol] | ΔS [1] [J·mol^−1·K^−1] | affinity for HSA [1] | main interaction force from thermodynamic analysis [1] | 3D-EEM Peak A Position λex/λem (HSA [2]) | 3D-EEM Peak B Position λex/λem (HSA [2]) | further results
1 | O=C(O)C(F)(F)C(F)(F)C(F)(F)C(F)(F)C(F)(F)C(F)(F)C(F)(F)C(F)(F)F [PFNA, Perfluorononanoic Acid] | static quenching | 30.6 | 2.52 ± 0.10 × 10^4 L·mol^−1 | 1.51 ± 0.06 | -39.32 | 2.52 ± 0.10 × 10^12 L·mol^−1·s^−1 | 2.35 ± 0.11 × 10^4 L·mol^−1 | 1.18 ± 0.03 | -30.86 | 2.35 ± 0.11 × 10^12 L·mol^−1·s^−1 | 1.27 ± 0.04 × 10^4 L·mol^−1 | 1.10 ± 0.04 | -29.65 | 1.27 ± 0.04 × 10^12 L·mol^−1·s^−1 | -278.25 ± 5.46 | −805.8 ± 13.8 | high affinity | hydrogen bonds or van der Waals interactions; also recorded: hydrogen bonds or van der Waals forces | 280/329 | 230/310 | HSA fluorescence peak position after PFAS addition (blue shift from 337 nm) [1]: 317 nm; 3D-EEM Peak A Intensity F (HSA [2]): 418.74 a.u.; 3D-EEM Peak B Intensity F (HSA [2]): 800.96 a.u.; reduction of 3D-EEM peak A intensity (HSA [2]; after binding with HSA): 37.8%; reduction of 3D-EEM peak B intensity (HSA [2]; after binding with HSA): 19.7%; HSA secondary structure: β-Sheet (HSA [3]): 7.6%; HSA secondary structure: β-Turn (HSA [3]): 15.1%; HSA secondary structure: Random Coil (HSA [3]): 41.2%; HSA secondary structure: α-Helix (HSA [3]): 36.2%; φ (rate of decrease in Kb) (HSA [4]; ibuprofen probe): 13.8%; φ (rate of decrease in Kb) (HSA [4]; lidocaine probe): 43.9%; φ (rate of decrease in Kb) (HSA [4]; warfarin probe): 98.3%
2 | O=C(O)C(F)(F)OC(F)(F)C(F)(F)OC(F)(F)C(F)(F)OC(F)(F)F [PFO3DA, Perfluoro-3,6,9-trioxadecanoic Acid] | static quenching | 15.3 | 1.05 ± 0.06 × 10^4 L·mol^−1 | 1.25 ± 0.03 | -29.67 | 1.05 ± 0.06 × 10^12 L·mol^−1·s^−1 | 1.03 ± 0.06 × 10^4 L·mol^−1 | 1.33 ± 0.02 | -27.11 | 1.03 ± 0.06 × 10^12 L·mol^−1·s^−1 | 0.87 ± 0.04 × 10^4 L·mol^−1 | 1.10 ± 0.03 | -26.56 | 0.87 ± 0.04 × 10^12 L·mol^−1·s^−1 | -106.57 ± 3.92 | −259.2 ± 9.4 | high affinity | hydrogen bonds or van der Waals interactions; also recorded: hydrogen bonds or van der Waals forces | 280/329 | 230/325 | 3D-EEM Peak A Intensity F (HSA [2]): 525.07 a.u.; 3D-EEM Peak B Intensity F (HSA [2]): 886.91 a.u.; HSA secondary structure: β-Sheet (HSA [3]): 5.8%; HSA secondary structure: β-Turn (HSA [3]): 17.3%; HSA secondary structure: Random Coil (HSA [3]): 40.6%; HSA secondary structure: α-Helix (HSA [3]): 36.4%; φ (rate of decrease in Kb) (HSA [4]; ibuprofen probe): 25.8%; φ (rate of decrease in Kb) (HSA [4]; lidocaine probe): 11.8%; φ (rate of decrease in Kb) (HSA [4]; warfarin probe): 95.1%
3 | O=C(O)C(F)(F)C(F)(F)C(F)(F)C(F)(F)C(F)(F)C(F)(F)C(F)(F)F [PFOA, Perfluorooctanoic Acid] | mixed quenching | 20.1 | 1.39 ± 0.07 × 10^4 L·mol^−1 | 1.26 ± 0.04 | -30.55 | 1.39 ± 0.07 × 10^12 L·mol^−1·s^−1 | 1.46 ± 0.09 × 10^4 L·mol^−1 | 1.31 ± 0.02 | -32.85 | 1.46 ± 0.09 × 10^12 L·mol^−1·s^−1 | 1.47 ± 0.11 × 10^4 L·mol^−1 | 1.47 ± 0.03 | -37.67 | 1.47 ± 0.11 × 10^12 L·mol^−1·s^−1 | 146.68 ± 6.39 | 593.3 ± 22.7 | high affinity | hydrophobic interactions | 280/336 | 230/327 | Kq (quenching rate constant) ([1]; 298 K): 1.39e+12 L/mol/s; HSA fluorescence peak position after PFAS addition (blue shift from 337 nm) [1]: 320 nm; 3D-EEM Peak A Intensity F (HSA [2]): 476.59 a.u.; 3D-EEM Peak B Intensity F (HSA [2]): 812.58 a.u.; HSA secondary structure: β-Sheet (HSA [3]): 6.4%; HSA secondary structure: β-Turn (HSA [3]): 15.8%; HSA secondary structure: Random Coil (HSA [3]): 40.5%; HSA secondary structure: α-Helix (HSA [3]): 37.2%; φ (rate of decrease in Kb) (HSA [4]; lidocaine probe): 8.1%; φ (rate of decrease in Kb) (HSA [4]; warfarin probe): 96.1%; average half-life ([5]; study on 19 PFAS): approximately 2.47 years; average half-life [5]: 3.8 years
4 | O=S(=O)(O)C(F)(F)C(F)(F)C(F)(F)C(F)(F)C(F)(F)C(F)(F)C(F)(F)C(F)(F)F [PFOS, Perfluorooctanesulfonic acid] |  |  |  |  |  |  |  |  |  |  |  |  |  |  |  |  |  |  |  |  | average half-life ([5]; study on 19 PFAS): ~4.52 years; average half-life [5]: 5.4 years
